# In patent US12528818B2, “Compositions and methods for inhibition of RAS” (Leidos Biomedical Research, Inc., priority 2021, dated 2026):
# pIC50: −log10 of the molar value. Read-outs that look alike come from different tables or passages of the source.
# Tested on: pERK in NCI-H358 cells
# Test: Cell-based pERK HTRF assay (pERK inhibition in H358 cells)
# Conditions: read-out: PERK in H358 cell
# Protocol: On Day 1, cells (NCI-H358) were seeded into 96-well plates at 4×10^4 cells/well in complete growth media (RPMI, 10% FBS).
# The source plate was created with compounds diluted in media at 5-fold the final assay concentration. […] 20 μL was transferred onto the cell plates (final volume in wells was 100 μL). Plates were harvested after 30 min incubation by aspirating media and adding kit-supplied 1× supplemented lysis buffer to all wells (75 μl per well). Plates were then placed on a plate shaker and incubated at 850 rpm for an additional 30 min.
# Antibody mixture solution was prepared by diluting aliquoted d2 and Eu Cryptate antibodies 1:20 in kit supplied detection buffer, then mixed the diluted antibodies solutions (1:1 v:v).
# Samples were homogenized by pipetting up and down and then transferred (16 μL of cell lysates) from the 96-well cell culture plate to two wells of the HTRF 384-well detection plate containing the antibody solution. Plates were centrifuged (524 g for 1 min) and allowed to incubate between 4 and 24 h at room temperature. Maximum signal is reached after 4 h incubation time and remains stable over a period of 24 hours. Therefore, readings can be made between 4 and 24 h of incubation.
# [1] = Homo sapiens, NCI-H358, 0.5 h, pERK inhibition IC50, NCI-H358 cells, 30 min incubation
# [2] = pERK inhibition IC50, NCI-H358 cells, 30 min incubation
pIC50 [1],SMILES,other results
> 7.00,C=CC(=O)N1C[C@H](F)[C@@H](N(C)c2nc(OC[C@@]34CCCN3C[C@H](F)C4)nc3c(F)c(-c4ccc(F)c5sc(N)c(C#N)c45)c(C(F)(F)F)cc23)C1 [Compound 327],
6.00 to 7.00,C=CC(=O)N1CC[C@@H](N(C)c2nc(OC[C@@]34CCCN3C[C@H](F)C4)nc3c(F)c(-c4ccc(F)c5sc(N)nc45)c(C#N)cc23)[C@H]1C [Compound 373],
,"C=CC(=O)N1CCC[C@@H](N(C)c2nc(OC[C@@]34CCCN3C[C@H](F)C4)nc3c(F)c(-c4ccc(F)c5sc(N)nc45)c(Cl)cc23)C1 (atropisomer, axis not shown) [Compound 242]",pIC50 [2]: 6.00 to 7.00
6.00 to 7.00,"C=CC(=O)N1CC(N(c2nc(OC[C@]34CCCN3C[C@H](F)C4)nc3c(F)c(-c4ccc(F)c5sc(N)nc45)c(C(F)(F)F)cc23)C2CC2)C1 [Compound 178, 1-(3-((7-(2-amino-7-fluorobenzo[d]thiazol-4-yl)-8-fluoro-2-(((2R,7aR)-2-fluorotetrahydro-1H-pyrrolizin-7a(5H)-yl)methoxy)-6-(trifluoromethyl)quinazolin-4-yl)(cyclopropyl)amino)azetidin-1-yl)prop-2-en-1-one]",
> 7.00,"C=CC(=O)N1C[C@H](C)N(c2nc(OC[C@@]34CCCN3C[C@H](F)C4)nc3cc(-c4c(F)cc(F)c5sc(N)nc45)c(C(F)(F)F)cc23)C[C@H]1C [Compound 298, 1-((2R,5S)-4-(7-(2-amino-5,7-difluorobenzo[d]thiazol-4-yl)-2-(((2R,7aS)-2-fluorotetrahydro-1H-pyrrolizin-7a(5H)-yl)methoxy)-6-(trifluoromethyl)quinazolin-4-yl)-2,5-dimethylpiperazin-1-yl)prop-2-en-1-one]",
< 6.00,"C=CC(=O)N1CC(Nc2nc(OCC34CCCN3CCC4)nc3c(F)c(-c4ccc(F)c5sc(N)nc45)c(CC#N)cc23)C1 [Compound 91, 2-(4-((1-acryloylazetidin-3-yl)amino)-7-(2-amino-7-fluorobenzo[d]thiazol-4-yl)-8-fluoro-2-((tetrahydro-1H-pyrrolizin-7a(5H)-yl)methoxy)quinazolin-6-yl)acetonitrile]",
< 6.00,C=CC(=O)N1CC(Nc2nc(OCC34CCCN3CCC4)nc3c(F)c(-c4ccc(F)c5sc(N)nc45)c(Cl)cc23)[C@H]1C (stereo partly drawn) [Compound 213],
> 7.00,C=CC(=O)N1C[C@@H](F)[C@@H](N(C)c2nc(OC[C@@]34CCCN3C[C@H](F)C4)nc3cc(-c4ccc(F)c5sc(N)nc45)c(C(F)(F)F)cc23)C1 [Compound 317],
< 6.00,"C=CC(=O)N1CC(Nc2nc(OC[C@@H]3CCCN3C)nc3c(F)c(-c4ccc(F)c5sc(N)nc45)c(Cl)cc23)C1 [Compound 23, 1-(3-((7-(2-amino-7-fluorobenzo[d]thiazol-4-yl)-6-chloro-8-fluoro-2-(((S)-1-methylpyrrolidin-2-yl)methoxy)quinazolin-4-yl)amino)azetidin-1-yl)prop-2-en-1-one]",
,"C=CC(=O)N1CC[C@@H](N(C)c2nc(OC[C@@]34CCCN3C[C@H](F)C4)nc3c(F)c(-c4ccc(F)c5sc(N)c(C#N)c45)c(C(F)(F)F)cc23)[C@H]1C (single isomer, unassigned) [Compound 435]",pIC50 [2]: < 6.00
,"C=CC(=O)N1CC[C@@H](N(C)c2nc(OCC34CCCN3CCC4)nc3c(F)c(-c4ccc(F)c5sc(N)nc45)c(C(F)(F)F)cc23)C1 (atropisomer, axis not shown) [Compound 222]",pIC50 [2]: 6.00 to 7.00
6.00 to 7.00,CC#CC(=O)N1CCN(c2nc(OCC34CCCN3CCC4)nc3c(F)c(-c4ccc(F)c5sc(N)nc45)c(C(F)(F)F)cc23)CC1 [Compound 134],
< 6.00,C=CC(=O)N1CC(Nc2nc(OCC34CCCN3CCC4)nc3c(F)c(-c4ccc(F)c5sc(N)nc45)c(C(F)(F)F)cc23)C1 [Compound 79],
> 7.00,C=CC(=O)N1[C@H](C)CN(c2nc(OC[C@@]34CCCN3C[C@@H](F)C4)nc3c(F)c(-c4ccc(F)c5sc(N)nc45)c(C(F)(F)F)cc23)C[C@@H]1C [Compound 224],
6.00 to 7.00,C=CC(=O)N1CC(N(C)c2nc(OC[C@]34CCCN3C[C@H](F)C4)nc3c(F)c(-c4ccc(F)c5sc(N)nc45)c(Cl)cc23)C1 [Compound 169],
> 7.00,C=CC(=O)N1CCC(N(CC)c2nc(OC[C@@H]3CCCN3C)nc3c(F)c(-c4ccc(F)c5sc(N)c(C#N)c45)c(C(F)(F)F)cc23)[C@H]1C (stereo partly drawn) [Compound 396],
> 7.00,C=CC(=O)N1C[C@@H](F)[C@@H](N(C)c2nc(OC[C@@H]3C[C@@H](OC)CN3C)nc3cc(-c4ccc(F)c5sc(N)nc45)c(C(F)(F)F)cc23)C1 [Compound 350],
6.00 to 7.00,C=C(F)C(=O)N1CCN(c2nc(OC[C@@]34CCCN3C[C@H](F)C4)nc3c(F)c(-c4ccc(F)c5sc(N)nc45)c(C(F)(F)F)cc23)C[C@H]1C [Compound 208],

pIC50 [1],SMILES,other results
> 7.00,C=CC(=O)N1CC[C@@H]2[C@H]1CN2c1nc(OC[C@@H]2C[C@@H](F)CN2C)nc2c(F)c(-c3ccc(F)c4sc(N)nc34)c(C(F)(F)F)cc12 [Compound 138],
> 7.00,C=CC(=O)N1C[C@@H](F)[C@@H](N(C)c2nc(OCC34CCCN3CCC4)nc3cc(-c4ccc(F)c5sc(N)c(C#N)c45)c(C(F)(F)F)cc23)C1 [Compound 369],
> 7.00,"C=CC(=O)N1C[C@H](C)N(c2nc(OC[C@@]34CCCN3C[C@H](F)C4)nc3c(Cl)c(-c4ccc(F)c5sc(N)nc45)c(C(F)(F)F)cc23)C[C@H]1C [Compound 295, 1-((2R,5S)-4-(7-(2-amino-7-fluorobenzo[d]thiazol-4-yl)-8-chloro-2-(((2R,7aS)-2-fluorotetrahydro-1H-pyrrolizin-7a(5H)-yl)methoxy)-6-(trifluoromethyl)quinazolin-4-yl)-2,5-dimethylpiperazin-1-yl)prop-2-en-1-one]",
> 7.00,C=CC(=O)N1C[C@H](C)N(c2nc(OCC34CCCN3CCC4)nc3c(F)c(-c4ccc(F)c5sc(N)nc45)c(C(F)(F)F)cc23)C[C@H]1C [Compound 281],
> 7.00,"C=CC(=O)N1C[C@H](C)N(c2nc(OC[C@@]34CCCN3C[C@H](F)C4)nc3c(F)c(-c4ccc(F)c5sc(N)c(C#N)c45)c(C(F)(F)F)cc23)C[C@H]1C [Compound 252, 4-(4-((2S,5R)-4-acryloyl-2,5-dimethylpiperazin-1-yl)-8-fluoro-2-(((2R,7aS)-2-fluorotetrahydro-1H-pyrrolizin-7a(5H)-yl)methoxy)-6-(trifluoromethyl)quinazolin-7-yl)-2-amino-7-fluorobenzo[b]thiophene-3-carbonitrile]",
> 7.00,C=CC(=O)N1CCC(N(CC)c2nc(OC[C@@H]3CC4(CC4)CN3C)nc3c(F)c(-c4ccc(F)c5sc(N)c(C#N)c45)c(C(F)(F)F)cc23)[C@H]1COC (stereo partly drawn) [Compound 445],
,"CN1CCC[C@H]1COc1nc(NC2CN(C#N)C2)c2cc(Cl)c(-c3ccc(F)c4sc(N)nc34)c(F)c2n1 [Compound 40, 3-((7-(2-amino-7-fluorobenzo[d]thiazol-4-yl)-6-chloro-8-fluoro-2-(((S)-1-methylpyrrolidin-2-yl)methoxy)quinazolin-4-yl)amino)azetidine-1-carbonitrile]","pIC50 (Homo sapiens, NCI-H358, 0.5 h): 6.00 to 7.00"
6.00 to 7.00,C=CC(=O)N1CCC(N(C)c2nc(OC[C@@H]3CCCN3C)nc3cc(-c4ccc(F)c5sc(N)c(C#N)c45)c(C#N)cc23)[C@H]1COC (stereo partly drawn) [Compound 455],
> 7.00,C=CC(=O)N1CC[C@@H](N(C)c2nc(OC[C@@]34CCCN3C[C@H](F)C4)nc3cc(-c4ccc(F)c5sc(N)c(C#N)c45)c(C#N)cc23)[C@H]1COC [Compound 393],
> 7.00,C=CC(=O)N1CC(Nc2nc(OC[C@@]34CCCN3C[C@H](F)C4)nc3c(F)c(-c4ccc(F)c5sc(N)nc45)c(C(F)(F)F)cc23)C1 [Compound 270],
> 7.00,C=CC(=O)N1CCN(c2nc(OC[C@@]34CCCN3C[C@@H](F)C4)nc3c(F)c(-c4ccc(F)c5sc(N)nc45)c(C(F)(F)F)cc23)[C@@H](C)C1 [Compound 218],
< 6.00,C=CC(=O)N1CCN(c2ncnc3c(F)c(-c4ccc(F)c5sc(N)nc45)c(C4CCC4)cc23)CC1 [Compound 122],
> 7.00,"C=CC(=O)N1CCC[C@@H](N(C)c2nc(OC[C@@]34CCCN3C[C@H](F)C4)nc3c(F)c(-c4ccc(F)c5sc(N)nc45)c(Cl)cc23)C1 (atropisomer, axis not shown) [Compound 241]",
> 7.00,C=CC(=O)N1CCN(c2nc(OC[C@@]34CCCN3C[C@H](F)C4)nc3c(F)c(-c4ccc(F)c5sc(N)c(C#N)c45)c(C(F)(F)F)cc23)C[C@H]1C [Compound 318],
,"C=CC(=O)N1CC[C@@H](N(c2nc(OC[C@@]34CCCN3C[C@H](F)C4)nc3c(F)c(-c4ccc(F)c5sc(N)nc45)c(C(F)(F)F)cc23)C2CC2)C1 (single isomer, unassigned) [Compound 236]",pIC50 [2]: > 7.00
> 7.00,C=CC(=O)N1CCN(c2nc(OC[C@@]34CCCN3C[C@H](F)C4)nc3c(F)c(-c4ccc(F)c5sc(N)nc45)c(C(F)(F)F)cc23)CC1 [Compound 194],
< 6.00,C=CC(=O)N1CC(N(c2nc(OCC34CCCN3CCC4)nc3c(F)c(-c4ccc(F)c5sc(N)nc45)c(Cl)cc23)C2CC2)C1 [Compound 151],
< 6.00,CC#CC(=O)N1CC[C@@H]2[C@H]1CN2c1nc(OCC23CCCN2CCC3)nc2c(F)c(-c3ccc(F)c4sc(N)nc34)c(Cl)cc12 [Compound 118],
